The record followed here is patent US10428018B2, “ROR gamma (RORy) modulators” (LEAD PHARMA HOLDING B.V., priority 2015, dated 2019).

SMILES strings stand for the structures.

The target in one test is T1, RORγ (Homo sapiens, UniProt P51449).
T1 construct: expressed in transfected cells; host or cells: 293FT cells (Invitrogen), expression vector pFN26A (Promega)
T1 sequence (P51449 269-508 limits assumed): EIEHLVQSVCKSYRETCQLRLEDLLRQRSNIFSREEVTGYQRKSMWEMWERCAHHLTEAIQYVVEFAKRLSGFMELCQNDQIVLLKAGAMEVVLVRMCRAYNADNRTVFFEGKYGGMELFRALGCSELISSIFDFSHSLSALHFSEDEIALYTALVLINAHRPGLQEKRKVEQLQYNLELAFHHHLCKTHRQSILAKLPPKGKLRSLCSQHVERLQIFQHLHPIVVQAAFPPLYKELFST
Description: RORγ GAL4 reporter gene assay (luciferase readout, 293FT cells). The following applies: inhibition of RORγ (GAL4-RORγ-LBD) luciferase signal in transfected 293FT cells, overnight incubation; read-out: mean pIC50 (converted). The format is cell-based. As to the method: Example inhibitors 1-45 were tested for their ability to inhibit RORγ activity in a RORγ GAL4 reporter gene assay.
The RORγ ligand-binding domain (LBD) was fused to the yeast GAL4 DNA binding domain (DBD) and placed under the control of the human cytomegalovirus (CMV) immediate early promoter, using expression vector pFN26A (Promega) and standard recombinant DNA cloning methods.
To monitor the inhibitory effect of compounds on RORγ, a transcriptional reporter construct was used. The pGL4.35 vector (Promega) contains nine copies of the GAL4 Upstream Activator Sequence (UAS). This sequence drives the transcription of the luciferase reporter gene luc2P in response to binding of a fusion protein containing the GAL4 DNA binding domain, as for example expressed by the GAL4-RORγ-LBD and GAL4-VP16 expression vectors described above.
The day after transfection, cells were plated into 96 well plates, test compound was added and the plates were incubated overnight. Subsequently, the firefly luciferase activity was quantified using luciferase detection reagent and luminescence readout.
1500 μL of this reagent mixture was added to 5 μg of GAL4 fusion protein expression vector and 5 μg of the transcriptional reporter construct, and incubated at RT for 20 minutes.
Subsequently, the cells were washed with Phosphate Buffered Saline (PBS) (Lonza), after which the PBS was removed. To dissociate the cells, 1 ml of TrypLE Express (Invitrogen) was added to the flask, followed by incubation at RT until the cells visually started to detach. Cells were collected in 5 mL of assay medium (DMEM culture medium (Lonza), 10% dialyzed FBS (Invitrogen) and Pen/Strep (Lonza)) to achieve a single cell suspension. 10×10^6 cells were spun down and re-suspended in 10 mL of assay medium.
For compound screening, the cells were harvested (as described above) and counted. […] 80 μL of cell suspension (60,000 cells) was plated per well into a white, flat bottom, tissue culture treated, 96 well screening plates (Greiner).
Subsequently, these solutions were diluted to 5× the final test concentration in two 10-fold-dilution steps in assay medium. The final DMSO concentration of the 5× test compound solution was 1%. 20 μL of the 5× test compound solution was added to each test well of the 96 well plate previously plated with 80 μl cell suspension, resulting in the final test concentration with 0.2% DMSO.
For the luciferase readout, the luciferase reagent (Britelite Plus, Perkin Elmer) was brought to RT. To each test well of the screening plates, 100 μL of 2.5-fold diluted Britelite Plus reagent was added, followed by incubation at RT for 10 minutes. The luciferase luminescence signal was measured using a Wallac Victor Microplate Reader (Perkin Elmer).
In general terms: Reporter assays use an easily measured gene product as a stand-in for the process of interest.

Test [1] has as its system IL-17A production in anti-CD3/anti-CD28 stimulated peripheral blood mononuclear cells (PBMCs). Description: Peripheral blood mononuclear cell (PBMC) IL-17 assay. The settings on record: Homo sapiens, 120 h, read-out: mean pIC50, inhibition of IL-17A secretion (ELISA), human PBMCs, anti-CD3/anti-CD28 stimulated, 5 days (converted). (In general: In an ELISA, binding on a coated surface is turned into a signal by an enzyme label.)
Description: This assay is designed to measure the levels of IL-17A secreted from anti-CD3/anti-CD28 stimulated PBMCs with the aim of measuring RORγ mediated inhibition of IL-17A production.
The assay medium consists of 90% RPMI 1640 (Lonza), 10% heat inactivated fetal bovin serum (FBS, Lonza) and 100 U/mL penicillin/streptomycin solution.
Anti-CD3 antibody (BD Pharmingen) was diluted to 10 μg/ml in PBS (Lonza). 30 μL of 10 μg/ml anti-CD3 solution was added to the inner 60 wells, excluding any negative control wells, of a 96-well cell culture treated U-bottom plate (Greiner). Plates were incubated overnight (16-24 hours) at 37° C. and 5% CO2.
Peripheral blood mononuclear cells were separated from buffy coats (Sanquin) using Ficoll-Paque PREMIUM separation medium (GE Healthcare Life Sciences) according to manufacturer's protocol and re-suspended in assay medium at 37° C.
Test compounds were diluted, starting from a 10 mM dimethylsulfoxide (DMSO) stock solution, to serial dilutions in DMSO at 200× the final test concentration. Subsequently, these solutions were diluted in two dilution steps in assay medium to 10× the final test concentration. The DMSO concentration of the 10× test compound solution was 5%.
Anti-CD28 antibody (BD Pharmingen) was diluted to 20 μg/mL in PBS.
For compound screening, the anti-CD3 coated plates were washed three times with PBS, the wells were subsequently aspirated using vacuum. To each screening well 80 μL of the PBMC suspension, 10 μL of the anti-CD28 solution and 10 μL of the 1 Ox test compound solution was added, resulting in the final test concentration with 0.5% DMSO. All outer wells were filled with assay medium to prevent evaporation. Plates were incubated for 5 days at 37° C. and 5% CO2.
After incubation the plates were spun down at 1500 rpm for 4 minutes and the supernatant was collected. Subsequently, the IL-17A levels in the supernatants was determined using an IL-17 ELISA kit (human IL-17 DuoSet, R&D systems) according to manufacturer's protocol.
The half maximum inhibitory concentration (IC50) values for the test compounds were calculated from the IL-17A signal using GraphPad Prism software (GraphPad Software).

On to `CCN(C(=O)c1ccc(NC(=O)Cc2ccc(S(=O)(=O)CC)cc2)cc1)c1cc(C)nn1C` [Example 2, N-(1,3-dimethyl-1H-pyrazol-5-yl)-4-{2-[4-(ethanesulfonyl)phenyl]acetamido}-N-ethylbenzamide], for which the IC50 (on RORγ; in test [1]) was at most 100 nM each time.
